{
  "source": "paper PMC5612656",
  "about": "“In vitro and in vivo effects of 2,4 diaminoquinazoline inhibitors of the decapping scavenger enzyme DcpS: Context-specific modulation of SMN transcript levels” (PLoS ONE, 2017)",
  "key": {"2B/- SMA mice": {"system": "2B/- SMA mice", "experiment": "Combined 55° negative geotaxis/climb test in 2B/- SMA mice", "type": "in vivo, mouse"}, "SMA Δ7 mice": {"system": "SMA Δ7 mice", "conditions": "SMAΔ7 mice; cited from earlier work"}, "[1]": {"conditions": "P16, Fisher's exact test P-value = 0.0708"}},
  "data": [
    {"smiles": "Nc1nc(N)c2c(OCC3CCN(Cc4c(Cl)cccc4Cl)CC3)cccc2n1", "note": "[RG3039]", "values": [
      {"measurement": "simultaneous pass rate, 55° negative geotaxis and climb test", "setting": "2B/- SMA mice; 2B/- SMA mice at P16, combined sexes", "result": "about 78%"},
      {"measurement": "improvement in ability to pass the combined assay over vehicle SMA mice", "setting": "2B/- SMA mice; [1]", "result": "~40", "unit": "%"},
      {"measurement": "statistical significance of improvement over vehicle SMA mice in combined test", "setting": "2B/- SMA mice; [1]", "result": "showed improvement over vehicle SMA mice that did not reach statistical significance"},
      {"measurement": "SMN protein or snRNP assembly", "setting": "SMA Δ7 mice", "result": "no detectable change"},
      {"measurement": "full length and Δ7 SMN transcripts", "setting": "SMA Δ7 mice", "result": "modest but statistically significant elevations"}
    ]}
  ]
}
